Target: DDR1 (Homo sapiens (Human), UniProt Q08345)
Experiment: Measurement of DDR1 enzyme inhibitory activity (phosphorylation of biotinylated peptide, time-resolved fluorescence)
Format: biochemical
Conditions: human DDR1 enzyme, biotinylated peptide phosphorylation; read-out: DDR1 enzyme inhibition assay IC50
Protocol: 1. Measurement of DDR1 Enzyme Inhibitory Activity
The DDR1 enzyme inhibitory activity was determined with human DDR1 enzyme prepared using the baculovirus expression system, based on the inhibitory activity of phosphorylation of a biotinylated peptide ([…]) by the enzyme. The phosphorylated biotinylated peptide was detected using time-resolved fluorescence, with an anti-phosphorylated tyrosine antibody conjugated with europium cryptate and streptavidin conjugated with XL665 which is a derivative of allophycocyanin.

DDR1, sequence (Q08345 19-913): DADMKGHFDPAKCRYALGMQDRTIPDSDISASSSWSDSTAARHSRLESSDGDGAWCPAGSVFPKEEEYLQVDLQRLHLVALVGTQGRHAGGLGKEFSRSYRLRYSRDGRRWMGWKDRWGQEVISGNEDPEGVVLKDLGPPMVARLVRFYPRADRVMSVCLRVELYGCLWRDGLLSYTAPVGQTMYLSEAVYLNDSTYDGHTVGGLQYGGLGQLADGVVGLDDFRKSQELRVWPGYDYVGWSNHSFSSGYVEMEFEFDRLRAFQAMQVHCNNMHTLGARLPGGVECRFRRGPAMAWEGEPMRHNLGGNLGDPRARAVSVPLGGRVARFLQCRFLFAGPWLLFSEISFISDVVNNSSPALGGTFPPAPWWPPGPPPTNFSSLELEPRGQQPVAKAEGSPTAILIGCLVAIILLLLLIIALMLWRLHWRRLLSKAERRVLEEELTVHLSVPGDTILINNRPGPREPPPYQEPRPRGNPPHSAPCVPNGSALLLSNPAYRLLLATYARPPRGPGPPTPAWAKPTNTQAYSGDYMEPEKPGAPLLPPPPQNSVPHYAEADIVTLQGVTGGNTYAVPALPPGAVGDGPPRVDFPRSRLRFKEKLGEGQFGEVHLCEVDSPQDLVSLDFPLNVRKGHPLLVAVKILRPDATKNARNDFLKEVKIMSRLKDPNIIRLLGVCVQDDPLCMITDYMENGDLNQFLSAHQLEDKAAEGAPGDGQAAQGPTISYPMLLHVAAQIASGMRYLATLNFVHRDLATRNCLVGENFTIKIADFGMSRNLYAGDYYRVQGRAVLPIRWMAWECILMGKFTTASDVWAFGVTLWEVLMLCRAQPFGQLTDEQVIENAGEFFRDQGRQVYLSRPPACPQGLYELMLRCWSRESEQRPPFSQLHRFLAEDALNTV

SMILES | IC50
CCSc1ccc(C#N)cc1Nn1cnc2c(Br)cc(C(F)(F)F)cc2c1=O [Compound C-11, 3-[[8-Bromo-4-oxo-6-(trifluoromethyl)quinazolin-3-yl]amino]-4-ethylsulfanylbenzonitrile] | 110 nM
CCS(=O)(=O)c1ccc(C#N)cc1Cn1cnc2ccc(C(F)(F)F)cc2c1=O [Compound E-28, 4-Ethylsulfonyl-3-[[4-oxo-6-(trifluoromethyl)quinazolin-3-yl]methyl]benzonitrile] | 630 nM
CCS(=O)(=O)c1ccc(Cl)cc1Nn1cnc2cc3c(cc2c1=O)OCO3 [Compound A-41, 7-(5-Chloro-2-ethylsulfonylanilino)-[1,3]dioxolo[4,5-g]quinazolin-8-one] | 1950 nM
CCSc1cnc(Cl)cc1Nn1cnc2ccc(C(F)(F)F)cc2c1=O [Compound D-6, 3-[(2-Chloro-5-ethylsulfanylpyridin-4-yl)amino]-6-(trifluoromethyl)quinazolin-4-one] | 93 nM
CCS(=O)(=O)c1ccc(C(F)(F)F)cc1Nn1cnc2c(Br)cc(C(F)(F)F)cc2c1=O [Compound C-35, 8-Bromo-3-[2-ethylsulfonyl-5-(trifluoromethyl)anilino]-6-(trifluoromethyl)quinazolin-4-one] | 210 nM
CCSc1ccc(Cl)cc1Cn1cnc2cc(C)c(I)cc2c1=O [Compound E-7, 3-[(5-Chloro-2-ethylsulfanylphenyl)methyl]-6-iodo-7-methylquinazolin-4-one] | 790 nM
CCS(=O)(=O)c1ccc(Cl)cc1Nn1cnc2ncc(C#N)cc2c1=O [Compound A-18, 3-(5-Chloro-2-ethylsulfonylanilino)-4-oxopyrido[2,3-d]pyrimidine-6-carbonitrile] | 1710 nM
CCSc1ccc(Br)cc1Nn1cnc2c(Br)cc(C(F)(F)F)cc2c1=O [Compound C-25, 8-Bromo-3-(5-bromo-2-ethylsulfanylanilino)-6-(trifluoromethyl)quinazolin-4-one] | 180 nM
CCS(=O)(=O)c1ccc(Cl)cc1Nn1cnc2cc3c(cc2c1=O)OCCO3 [Compound A-43, 3-(5-Chloro-2-ethylsulfonylanilino)-7,8-dihydro-[1,4]dioxino[2,3-g]quinazolin-4-one] | 600 nM
CCS(=O)(=O)c1ccc(Cl)cc1Nn1cnc2ccc(F)cc2c1=O [Compound A-29, 3-(5-Chloro-2-ethylsulfonylanilino)-6-fluoroquinazolin-4-one] | 340 nM
CCS(=O)(=O)c1ccc(Cl)cc1Nn1cnc2cnc(OC)cc2c1=O [Compound A-22, 3-(5-Chloro-2-ethylsulfonylanilino)-6-methoxypyrido[3,4-d]pyrimidin-4-one] | 1930 nM
CCSc1ccc(Cl)cc1Nn1cnc2ccc(OC(F)(F)F)cc2c1=O [Compound A-44, 3-(5-Chloro-2-ethylsulfanylanilino)-6-(trifluoromethoxy)quinazolin-4-one] | 290 nM
CCS(=O)(=O)c1ncc(Cl)cc1Nn1cnc2ccc(C(F)(F)F)cc2c1=O [Compound D-3, 3-[(5-Chloro-2-ethylsulfonylpyridin-3-yl)amino]-6-(trifluoromethyl)quinazolin-4-one] | 430 nM
CCS(=O)(=O)c1ccc(C#N)cc1Nn1cnc2ccc(OC(F)(F)F)cc2c1=O [Compound C-16, 4-Ethylsulfonyl-3-[[4-oxo-6-(trifluoromethoxy)quinazolin-3-yl]amino]benzonitrile] | 270 nM
CCS(=O)(=O)c1ccc(Cl)cc1Nn1cnc2c(-c3ccc(F)cc3)cc(C)cc2c1=O [Compound A-4, 3-(5-Chloro-2-ethylsulfonylanilino)-8-(4-fluorophenyl)-6-methylquinazolin-4-one] | 1350 nM
CCOc1ccc2ncn(Nc3cc(Cl)ccc3SCC)c(=O)c2c1 [Compound A-36, 3-(5-Chloro-2-ethylsulfanylanilino)-6-ethoxyquinazolin-4-one] | 250 nM
CCS(=O)(=O)c1ccc(Cl)cc1Cn1cnc2c(Br)cc(C)cc2c1=O [Compound E-2, 8-Bromo-3-[(5-chloro-2-ethylsulfonylphenyl)methyl]-6-methylquinazolin-4-one] | 600 nM
CCSc1ccc(Cl)cc1Nn1cnc2ccc([N+](=O)[O-])cc2c1=O [Compound A-56, 3-(5-Chloro-2-ethylsulfanylanilino)-6-nitroquinazolin-4-one] | 99 nM
CCSc1ccc(C#N)cc1Nn1cnc2c(Br)cc(C)cc2c1=O [Compound C-1, 3-[(8-Bromo-6-methyl-4-oxoquinazolin-3-yl)amino]-4-ethylsulfanylbenzonitrile] | 110 nM
CCS(=O)(=O)c1ccc([N+](=O)[O-])cc1Cn1ccc2ccc(C(F)(F)F)cc2c1=O [Compound F-6, 2-[(2-Ethylsulfonyl-5-nitrophenyl)methyl]-7-(trifluoromethyl)isoquinolin-1-one] | 490 nM

SMILES | IC50
CCS(=O)(=O)c1ccc(OC)cc1Nn1cnc2c(Br)cc(C(F)(F)F)cc2c1=O [Compound C-30, 8-Bromo-3-(2-ethylsulfonyl-5-methoxyanilino)-6-(trifluoromethyl)quinazolin-4-one] | 150 nM
CCCc1ccc2ncn(Nc3cc(Cl)ccc3S(=O)(=O)CC)c(=O)c2c1 [Compound A-55, 3-(5-Chloro-2-ethylsulfonylanilino)-6-propylquinazolin-4-one] | 240 nM
CCOc1ccc(S(=O)(=O)CC)c(Nn2cnc3c(Br)cc(C(F)(F)F)cc3c2=O)c1 [Compound C-32, 8-Bromo-3-(5-ethoxy-2-ethylsulfonylanilino)-6-(trifluoromethyl)quinazolin-4-one] | 1970 nM
CCS(=O)(=O)c1ncc(Cl)cc1Nn1cnc2c(Br)cc(C)cc2c1=O [Compound D-5, 8-Bromo-3-[(5-chloro-2-ethylsulfonylpyridin-3-yl)amino]-6-methylquinazolin-4-one] | 130 nM
Cc1cc(Br)c2ncn(Nc3cc(Cl)ccc3[S+]([O-])c3ccccc3)c(=O)c2c1 (centres unmarked) [Compound B-13, 3-[2-(Benzenesulfinyl)-5-chloroanilino]-8-bromo-6-methylquinazolin-4-one] | 740 nM
CCS(=O)(=O)c1ccc(Cl)cc1Nn1cnc2ccc(S(C)(=O)=O)cc2c1=O [Compound A-49, 3-(5-Chloro-2-ethylsulfonylanilino)-6-methylsulfonylquinazolin-4-one] | 2130 nM
CCSc1ccc(Cl)cc1Cn1cnc2ccc(OC(F)(F)F)cc2c1=O [Compound E-3, 3-[(5-Chloro-2-ethylsulfanylphenyl)methyl]-6-(trifluoromethoxy)quinazolin-4-one] | 480 nM
CCSc1ccc(C#N)cc1Nn1cnc2ccc(OC(F)(F)F)cc2c1=O [Compound C-15, 4-Ethylsulfanyl-3-[[4-oxo-6-(trifluoromethoxy)quinazolin-3-yl]amino]benzonitrile] | 210 nM
CCSc1ccc(Cl)cc1Nn1cnc2cnc(F)cc2c1=O [Compound A-19, 3-(5-Chloro-2-ethylsulfanylanilino)-6-fluoropyrido[3,4-d]pyrimidin-4-one] | 510 nM
CCS(=O)(=O)c1ccc(C#N)cc1Nn1cnc2cc(CN3CCOCC3)c(OC(F)(F)F)cc2c1=O [Compound G-8, 4-Ethylsulfonyl-3-[[7-(morpholin-4-ylmethyl)-4-oxo-6-(trifluoromethoxy)quinazolin-3-yl]amino]benzonitrile] | 680 nM
CCS(=O)(=O)c1ccc(N)cc1Cn1ccc2ccc(OC(F)(F)F)cc2c1=O [Compound F-10, 2-[(5-Amino-2-ethylsulfonylphenyl)methyl]-7-(trifluoromethoxy)isoquinolin-1-one] | 1340 nM
CCS(=O)(=O)c1ccc(Cl)cc1Nn1cnc2c(I)cc(C(F)(F)F)cc2c1=O [Compound A-13, 3-(5-Chloro-2-ethylsulfonylanilino)-8-iodo-6-(trifluromethyl)quinazolin-4-one] | 240 nM
CCSc1ccc(C#N)cc1Nn1cnc2ncc(Br)cc2c1=O [Compound C-7, 3-[(6-Bromo-4-oxopyrido[2,3-d]pyrimidin-3-yl)amino]-4-ethylsulfanylbenzonitrile] | 750 nM
CCS(=O)(=O)c1ccc(C#N)cc1Nn1cnc2cc(C)c(Br)cc2c1=O [Compound C-6, 3-[(6-Bromo-7-methyl-4-oxoquinazolin-3-yl)amino]-4-ethylsulfonylbenzonitrile] | 250 nM
CCSc1ccc(Cl)cc1Nn1cnc2ccc(C(F)(F)F)cc2c1=O [Compound A-9, 3-(5-Chloro-2-ethylsulfanylanilino)-6-(trifluoromethyl)quinazolin-4-one] | 180 nM
C=Cc1ccc2ncn(Nc3cc(Cl)ccc3S(=O)(=O)CC)c(=O)c2c1 [Compound A-64, 3-(5-Chloro-2-ethylsulfonylanilino)-6-ethenylquinazolin-4-one] | 200 nM
CCS(=O)(=O)c1ccc(Cl)cc1Cn1cnc2cc(C)c(I)cc2c1=O [Compound E-8, 3-[(5-Chloro-2-ethylsulfonylphenyl)methyl]-6-iodo-7-methylquinazolin-4-one] | 200 nM
CSc1ccc(Cl)cc1Nn1cnc2c(Br)cc(C)cc2c1=O [Compound B-1, 8-Bromo-3-(5-chloro-2-methylsulfanylanilino)-6-methylquinazolin-4-one] | 250 nM
CCSc1ccc(Cl)cc1Cn1cnc2c(Br)cc(C(F)(F)F)cc2c1=O [Compound E-9, 8-Bromo-3-[(5-chloro-2-ethylsulfanylphenyl)methyl]-6-(trifluoromethyl)quinazolin-4-one] | 590 nM
CCS(=O)(=O)c1ccc(Cl)cc1Nn1cnc2cc(F)c(F)cc2c1=O [Compound A-31, 3-(5-Chloro-2-ethylsulfonylanilino)-6,7-difluoroquinazolin-4-one] | 380 nM

Same assay, conditions: read-out: DDR1 enzyme inhibition assay IC50

SMILES | IC50
CCS(=O)(=O)c1ccc(Cl)cc1Cn1cnc2c(Br)c(CN3CCNCC3)c(Br)cc2c1=O [Compound L-11, 6,8-Dibromo-3-[(5-chloro-2-ethylsulfonylphenyl)methyl]-7-(piperazin-1-ylmethyl)quinazolin-4-one] | 90 nM

Source: patent US10005739B2, “Quinazolinone and isoquinolinone derivative” (CHUGAI SEIYAKU KABUSHIKI KAISHA, priority 2013, dated 2018)
